This test deals with T1, Bile acid receptor (Homo sapiens, UniProt Q96RI1).
T1 sequence (Q96RI1 whole entry): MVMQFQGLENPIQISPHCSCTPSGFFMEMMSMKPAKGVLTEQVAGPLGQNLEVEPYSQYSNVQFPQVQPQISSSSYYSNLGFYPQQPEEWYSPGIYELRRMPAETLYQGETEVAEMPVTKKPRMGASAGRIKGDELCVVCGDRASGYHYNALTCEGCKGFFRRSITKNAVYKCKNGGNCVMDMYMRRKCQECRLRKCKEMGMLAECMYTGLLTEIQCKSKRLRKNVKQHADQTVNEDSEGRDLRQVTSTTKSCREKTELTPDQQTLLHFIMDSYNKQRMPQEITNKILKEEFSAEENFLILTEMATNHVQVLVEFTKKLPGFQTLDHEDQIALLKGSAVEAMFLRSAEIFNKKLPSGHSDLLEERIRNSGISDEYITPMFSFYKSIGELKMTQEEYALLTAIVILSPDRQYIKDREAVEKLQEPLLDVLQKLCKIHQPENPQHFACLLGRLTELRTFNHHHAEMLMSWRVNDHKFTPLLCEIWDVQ
The test is described as follows: FXR Reporter Assay kit purchased from Indigo Bioscience (Catalogue number: IB00601) to determine the potency and efficacy of compound developed by Enanta that can induce FXR activation. The principle application of this reporter assay system is to quantify functional activity of human FXR. The assay utilizes non-human mammalian cells, CHO (Chinese hamster ovary) cells engineered to express human NR1H4 protein (referred to as FXR). Reporter cells also incorporate the cDNA encoding beetle luciferase which catalyzes the substrates and yields photon emission. Luminescence intensity of the reaction is quantified using a plate-reading luminometer, Envision. Reporter Cells include the luciferase reporter gene functionally linked to an FXR responsive promoter. Thus, quantifying changes in luciferase expression in the treated reporter cells provides a sensitive surrogate measure of the changes in FXR activity. […] The assay is according to the manufacturer's instructions. In brief, the assay was performed in white, 96 well plates using final volume of 100 ul containing cells with different doses of compounds. Retrieve Reporter Cells from −80° C. storage. Perform a rapid thaw of the frozen cells by transferring a 10 ml volume of 37° C. cell recovery medium into the tube of frozen cells. Recap the tube of Reporter Cells and immediately place it in a 37° C. water bath for 5-10 minutes. […]. In kind it is cell-based. A general note: Reporter assays use an easily measured gene product as a stand-in for the process of interest.

pEC50: −log10 of the molar value. Bounds are passed on as bounds.

`CC[C@H]1[C@@H](O)[C@@H]2[C@H](CC[C@]3(C)[C@@H]([C@H](C)C/C=C/c4ccc(F)cc4C(=O)O)CC[C@@H]23)[C@@]2(C)CC[C@@H](O)C[C@@H]12` gave a pEC50 above 7.00.

A word on the pEC50: it is the negative decadic logarithm of the EC50, by convention in mol/L. Lower therefore signals a high EC50.

The record behind these values is ChEMBL document CHEMBL5727118, “Benzoic acid derivatives of bile acid as FXR/TGR5 agonists and methods of use thereof” (2019).
